Assays:
cold allodynia in rats = experiment: Cold allodynia in vivo assay (chronic constriction injury), chronic studies; set-up: species or system rat; conditions: for anti-allodynia after chronic dosing: subcutaneous, 5 days of twice daily dosing
Description: This assay determines the effectiveness of compounds in relieving one of the symptoms of neuropathic pain produced by unilateral mononeuropathy, namely cold allodynia. Unilateral mononeuropathy was produced in rats using the Chronic Constriction Injury model performed essentially as described by Bennet and Xie, Pain, (1988) 33:87-107. Briefly, the rats were anesthetized with an intraperitoneal dose of pentobarbital sodium (65 mg/kg) with additional doses of anesthetic given as needed. The lateral aspect of each rat's hind limb was shaved and scrubbed with Novasan. Using aseptic technique, an incision was made on the lateral aspect of the hind limb at the mid-thigh level. The biceps femoris was bluntly dissected to expose the sciatic nerve. On the right hind limb of each rat, four loosely tied ligatures were made around the sciatic nerve approximately 1-2 millimeters apart. On the left side of each rat, an identical dissection was performed except that the sciatic nerve was not ligated. The muscle was closed with a continuous suture pattern, and the skin was closed with wound clips. Each rat was placed individually into a plexiglass chamber with a metal plate 6 cm from the bottom. This chamber was filled with ice water to a depth of 2.5 cm above the metal plate, with the temperature of the bath maintained at 0° C. throughout the experiment. A timer was started, and the rat's response latency was measured to the nearest tenth of a second. A "response" was defined as a rapid withdrawal of the right ligated hindpaw completely out of the water while the animal was stationary and not pivoting. An exaggerated limp while the animal was walking was not scored as a response. Maximum immersion time was 20 seconds with a 20 minute interval between trials. The screening criteria were 1) the average of two trials was less than or equal to 13 seconds, and 2) there was consistency across the two trial scores. Animals were screened for hypersensitivity to cold on post-surgery days 4 through 10, and selected for inclusion in dose-response studies based on the criteria described above. The pre-dose screening values were used as the animal's baseline cold allodynia scores. For chronic studies, the animals received subcutaneous or oral injections twice daily for 4 days and once on day 5. The animals were tested for allodynia on day 1 at 1, 3 and 5 hours following the 8 am dose, and at 5 hours following the 8 am dose on days 3 and 5. Two days later, the animals were tested for cold allodynia to assess whether there was a wash-out of the drug being tested. Following this screening for cold allodynia, the animals in two of the three chronic studies received either subcutaneous or oral injections of the drug at a dose previously shown to produce significant anti-allodynic effects acutely. […]

[1] = Metabolism to Formula II / plasma levels of Formula II after oral administration; assay type: in vivo
[2] = tested on: mechanical allodynia in rats; experiment: Mechanical allodynia in vivo assay (spinal nerve ligation); set-up: species or system rat
Description: This assay determines the effectiveness of compounds in relieving one of the symptoms of neuropathic pain produced by spinal nerve ligation, namely mechanical allodynia. The surgical procedure was performed essentially as described by Kim and Chung, Pain, (1992) 50:355-363. Briefly, the rats were anesthetized with an intraperitoneal dose of pentobarbital sodium (65 mg/kg) with additional doses of anesthetic given as needed. Each animal was then placed in a prone position, a 3 cm lateral incision was made, and the left paraspinal muscles separated from the spinous process at the L4 -S2 level. The L6 transverse process was then removed in order to visually identify the L4 -L6 spinal nerves. The L5 and L6 spinal nerves were then individually isolated and tightly ligated with silk thread. The wound was then closed in layers by silk sutures. Seven to 28 days post-surgery, a calibrated series of eight von Frey filaments were used to assess mechanical allodynia. Animals were housed individually in plexiglass cages with a wire mesh floor. Filaments of increasing stiffness were applied perpendicular to the midplantar surface in the sciatic nerve distribution areas of the left hindpaw and were slowly depressed (4-6 seconds) until bending occurred. The filament application order and number of trials were determined by the up-down method of Dixon (Chaplan, et al., J. Neurosci. Methods, (1994) 53:55-63). Flinching and licking of the paw and paw withdrawal on the ligated side were all considered positive responses. The 50% paw withdrawal threshold (g) was then calculated and compared to control. The doses for the acute and chronic studies were selected on the basis of prior assessment of the acute effects on the test compounds on the gross behavior in normal rats. Briefly, the rats were weighed and grouped into cages, dosed with the test compound, and observed continuously for changes in behavior. […] Pinna and corneal reflexes were tested by using a piece of natural hair from a brush that is attached to a glass rod. The righting reflexes were tested by placing the rat flat on its back, and recording the time it takes for the animal to right itself onto all four legs. The posture and gait were assessed by placing the rat on the floor.

[3] = Adverse effects / gross behavior on dosing; assay type: in vivo, rat
Description: The doses for the acute and chronic studies were selected on the basis of prior assessment of the acute effects on the test compounds on the gross behavior in normal rats. Briefly, the rats were weighed and grouped into cages, dosed with the test compound, and observed continuously for changes in behavior. […] Pinna and corneal reflexes were tested by using a piece of natural hair from a brush that is attached to a glass rod. The righting reflexes were tested by placing the rat flat on its back, and recording the time it takes for the animal to right itself onto all four legs. The posture and gait were assessed by placing the rat on the floor.
The selection of doses was similar to that of Example 12C.

[4] = mechanical allodynia, subcutaneous
[5] = subcutaneous, cold allodynia acute study

| SMILES | anti-allodynia after chronic dosing (cold allodynia in rats) | metabolism to the compound of Formula II ([1]; oral, mammal) | ED50 ([2]; Rattus norvegicus, sc, mechanical allodynia, subcutaneous) | EDmax [2, 4] | maximal analgesic activity (Emax) [2, 4] | potency (ED50) comparison ([2]; mechanical allodynia, subcutaneous, in words) | doses with adverse side effects / behavioral problems [3, 5] | adverse side effects observed ([3]; subcutaneous, cold allodynia acute study, doses higher than 60 mg/kg) | anti-allodynic effect after chronic oral dosing (cold allodynia in rats; oral, chronic, (R)-enantiomer 10 and 20 mg/kg, sub-threshold) | plasma level of Formula II after oral (R)-enantiomer of Formula I, less than after acute administration of Formula II itself ([1]; oral administration, plasma) | maximal analgesic activity, comparison ([2]; mechanical allodynia, subcutaneous, vs racemates of I, II and III) | analgesia against mechanical allodynia ([2]; oral administration) | doses with adverse side effects ([3]; oral administration, mechanical allodynia study) | safety profile ([3]; oral administration, vs (S)-enantiomer) | safety profile ([3]; subcutaneous, cold allodynia acute study, vs racemate, (S)-enantiomer, or II) |
| --- | --- | --- | --- | --- | --- | --- | --- | --- | --- | --- | --- | --- | --- | --- | --- |
| CCNC(C)COc1c(C)cccc1C (racemic) [Formula I racemate, [2-(2,6-dimethylphenoxy)-1-methylethyl]-ethylamine] | significant levels of anti-allodynia | metabolized to some extent to the compound of Formula II | 12.6 mg/kg | 66% | 66% | considerably more potent (ED50) than II or III | higher than 60 mg/kg | convulsions and immobility |  |  |  |  |  |  |  |
| CCN[C@H](C)COc1c(C)cccc1C [Formula I (R)-, (R)-[2-(2,6-dimethylphenoxy)-1-methylethyl]-ethylamine] | significant levels of anti-allodynia |  |  |  | 98% |  | ≥ 300 mg/kg |  | as robust an anti-allodynic effect as an acute dose of compound I that is 10 fold higher | 5-10 fold less | significantly greater maximal analgesic activity | did not produce analgesia | ≥ 300 mg/kg | cleaner safety profile | cleaner safety profile |

Reference: patent US5688830A, “Treatment of neuropathic pain” (Syntex (U.S.A.) Inc., priority 1997, dated 1997)
